Where “and” joins values, the source holds several entries; their conditions need not be identical. Identical values can stand only once. Entries after “also recorded” stand apart in the source; their conditions may differ.
Legend:
[1] = system: patients undergoing coronary artery bypass graft (CABG) surgery; assay: Ejection fraction and hemodynamics (Phase 2); format: in vivo, human
Experimental: (§1) During surgery, anesthesia was maintained by continuous infusion of fentanyl and midazolam. Routine clinical parameters were recorded using standard operating room monitoring equipment. Continuous 2-lead Holter ECG and TEE data were recorded. Standard surgical procedures (e.g., aorta cross-clamping, crystalloid cardioplegia, cardio-pulmonary bypass, hypothermia) were used. Anastomoses were constructed, aorta cross-clamp removed and patients were discontinued from bypass when body temperature was 37° C. The quality of anastomosis was judged by the surgeon. Difficulty in weaning from bypass was judged by need for one or more of the following: pacemaker, return to bypass, balloon pump or vasopressor administration. Hemodynamic measurements, including heart rate, arterial blood pressure, pulmonary capillary wedge pressure and cardiac output, were recorded before sternotomy, 15 and 30 min after bypass and upon chest closure. Radial artery and pulmonary artery pressures, myocardial and whole body temperature, O2 saturation, end-tidal CO2 and arterial blood gases were measured, and ECG recordings were obtained as clinically indicated. Hemodynamic variables (blood pressure, heart rate, pulmonary capillary wedge pressure) were controlled within 20% of baseline using prescribed regimens.
During the post-operative period through the first post-operative day, morphine and midazolam were used for sedation and analgesia. The cardiovascular medications required were recorded. During this period, continuous ECG monitoring (Holter) was performed for up to 48 hours. Hemodynamic measurements (pulmonary artery pressures and cardiac output) were obtained at 2, 4, 8 and 12 hours (in some cases at 24 and 48 hours) and also whenever clinically indicated.
(§2) A twelve-lead ECG was obtained on arrival in the intensive care unit and during post-operative days 1, 2, 3 and at hospital discharge. Creatinine phosphokinase MB band (CK-MB) was obtained every 8 hours for 48 hours and when indicated. Radio-nuclide ventriculography for ejection fraction and wall motion score was done about 14 days post-operation and as close to hospital discharge as possible. Other tests and measurements (e.g., chest x-ray, pulmonary artery wedge pressure (PCWP) were performed when clinically indicated for diagnosis or evaluation of myocardial infarction, or congestive heart failure. Timing and dose of all cardiovascular medications within 48 hours after surgery were recorded. The total dose of all analgesics during the 24-hour post-operative period was recorded. Fluid intake and output (e.g., blood replacement and urine output) were recorded for 48 hours. The type and duration of inotropic support and antiarrhythmic intervention required were recorded through 24 hours after surgery. Two-channel Holter recordings were obtained during 3 periods, the eight hours prior to intubation, from intubation through the end of surgery, and for an additional 24-48 hours after surgery.
9. Election Fraction. Pre-operative and post-operative ejection fractions were measured using different methodologies; therefore, changes could not be analyzed statistically. Group mean injection fractions and pre- and post-CABG are presented and apparent differences between groups were described.
Results for ejection fraction, measured on all patients pre-operatively (by angiography) and at the time of discharge from the intensive care unit (by radionuclide ventriculography) are given in Table 10 below.

[2] = Plasma AICA riboside concentrations / pharmacokinetics in CABG patients (Phase 2); format: in vivo, human
Experimental: 10. Plasma Levels. […] Individual values and group means were tabulated and drug clearance calculated. Dose proportionality was assessed.
The data are also presented graphically in FIG. 3.

[3] = Uric acid monitoring, Phase 3 CABG trial; format: in vivo, human; conditions: treated patients, data not shown
Text: The uric acid concentrations of all patients in the study were monitored.

[4] = Safety assessment / adverse events in CABG patients (Phase 2); format: in vivo, human; conditions: for Patients with one or more adverse events: placebo 29 of 37
Experimental: In addition to the hemodynamic monitoring described above the following tests were performed at screening, on the first post-operative day and at discharge:
4. Any adverse events were recorded throughout by the investigator, who assessed their severity and the relationship of these adverse experiences to the treatment.
11. Adverse Effects. The incidence, severity and drug-relatedness of any adverse effects were tabulated by treatment group by decreasing incidence of such effects in the high dose group. Statistical analysis was not performed.

[5] = system: patients undergoing coronary artery bypass graft (CABG) surgery; assay: Myocardial ischemia by continuous Holter ECG and TEE (Phase 2); format: in vivo, human; conditions: for Mean duration of postbypass ECG ischemic episodes: patients with events, placebo 175 ± 156, p=0.04; for Incidence of prebypass ECG ischemia: placebo 0%; for Incidence of ECG ischemia (postbypass) / Incidence of preoperative (baseline) ECG ischemia: placebo 18%; for Incidence of ECG ischemia (postbypass): p=0.42; for Incidence of prebypass TEE ischemia: placebo 19%; for Incidence of prebypass TEE ischemia / Ischemic minutes per hour monitored, postbypass: p=0.22; for Incidence of postbypass TEE ischemia: placebo 29%, p=0.86; for Ischemic minutes per hour monitored, postbypass: placebo 35 ± 14; for Mean area under the S-T curve (AUC), postbypass ECG ischemia: placebo -258 ± 317, p=0.24; for Incidence of preoperative (baseline) ECG ischemia: before drug; for Mean area under the S-T segment: post-bypass, placebo 35±14
Experimental: as §1, §2
The evaluation of Holter tapes and echo videotapes was performed centrally by two independent blinded observers; if there was disagreement between the two, a third observer was used to "break the tie." The same observers were used throughout the study.
5. Ischemic Events--TEE. Ischemic event data were evaluated during two time periods--pre-bypass and post-bypass, using the following analysis:
a) The number of patients with ischemic events was compared across the groups using Fisher's exact test. This analysis also included pre-post changes and pre- and post-combined.
b) For patients with events, analysis of the mean duration and severity of ischemia was done. Using only the patients with ischemic events reduced the number included in the analysis, but allowed determination of whether the drug is effective in reducing the magnitude of the events, should they occur. […] For severity (an […] variable, 0-4 scale) and number of events, the Kruskal-Wallis nonparametric test was used. The same comparisons were done with the active treatment groups combined.
6. Ischemic Events--ECG. The analysis of ischemic events indicated by ECG was done using the same methods as the echo events. The time periods analyzed were: (a) baseline (Holter start to infusion start), (b) pre-bypass (infusion start to bypass start), (c) post-bypass (sideclamp off to infusion end), and (d) post-treatment (infusion end to Holter end). […]

[6] = Discoloration of liquid formulation during storage; format: physicochemical
[7] = high dose (0.1 mg/kg/min), 0.1 mg/kg
[8] = low dose (0.05 mg/kg/min), 0.05 mg/kg

NC(=O)c1ncn([C@@H]2O[C@H](CO)[C@@H](O)[C@H]2O)c1N [AICA riboside, 5-amino-1-β-D-ribofuranosyl-imidazole-4-carboxamide]
Ejection fraction ([1]; 0.05 mg/kg/min group, pre-bypass (pre-operative, LV angiography), placebo 57.6 ± 2.0, p=0.54): 55.0 ± 2.3%
Ejection fraction ([1]; 0.05 mg/kg/min, post-bypass (radionuclide ventriculography), placebo 56.5 ± 2.3, p=0.28): 59.0 ± 2.0%
Ejection fraction ([1]; 0.10 mg/kg/min group, pre-bypass (pre-operative, LV angiography), placebo 57.6 ± 2.0, p=0.54): 58.4 ± 2.4%
Ejection fraction ([1]; 0.10 mg/kg/min, post-bypass (radionuclide ventriculography), placebo 56.5 ± 2.3, p=0.28): 61.3 ± 1.7%
Effect on heart rate and blood pressure ([1]; CABG surgery): no effects of treatment with AICA riboside were seen on these parameters
Ejection fraction vs placebo ([1]; post-operative, not statistically significant): higher mean ejection fractions post-bypass than the placebo group; also recorded: trend towards higher ejection fraction in the high dose AICA riboside group
Steady state plasma concentration ([2]; 0.05 mg/kg/min): approximately 2.5 μg/ml
Mean (±SEM) plasma AICA riboside concentration ([2]; 0.05 mg/kg/min constant infusion, n=40, pre-bypass): 2.66 ± 0.30 µg/mL
Mean (±SEM) plasma AICA riboside concentration ([2]; 0.05 mg/kg/min, n=40, 1 hour post-infusion): 0.32 ± 0.63 µg/mL
Mean (±SEM) plasma AICA riboside concentration ([2]; 0.05 mg/kg/min, n=40, end infusion): 1.83 ± 0.13 µg/mL
Mean (±SEM) plasma AICA riboside concentration ([2]; 0.05 mg/kg/min, n=40, post-bypass): 2.49 ± 0.13 µg/mL
Steady state plasma concentration ([2]; 0.1 mg/kg/min): ~5.0 µg/mL
Mean (±SEM) plasma AICA riboside concentration ([2]; 0.10 mg/kg/min constant infusion, n=31, pre-bypass): 5.11 ± 0.20 µg/mL
Mean (±SEM) plasma AICA riboside concentration ([2]; 0.10 mg/kg/min, n=31, 1 hour post-infusion): 0.45 ± 0.03 µg/mL
Mean (±SEM) plasma AICA riboside concentration ([2]; 0.10 mg/kg/min, n=31, end infusion): 3.67 ± 0.30 µg/mL
Mean (±SEM) plasma AICA riboside concentration ([2]; 0.10 mg/kg/min, n=31, post-bypass): 5.47 ± 0.19 µg/mL
Kinetics (linearity, dose proportionality) ([2]; CABG patients, 0.05 and 0.1 mg/kg/min infusion): exhibits linear kinetics; also recorded: good dose proportionality
Plasma concentration as % of steady state level after end of infusion ([2]; one hour after infusion terminated): 10%
Change of CLp during post-bypass period ([2]; post-bypass): trend for the CLp to increase
Dose needed in anesthetized patients, % less than in non-anesthetized patients ([2]; to achieve desired blood concentration levels): 20-50%
Crystalluria [3]: no clinically significant crystalluria
Plasma uric acid concentrations vs normal range [3]: generally remained in, or close to, the normal range
Uric acid concentrations, dose relation [3]: clear dose related increase in uric acid concentrations
Patients with one or more adverse events ([4]; 0.05 mg/kg/min): 28/41
Patients with one or more adverse events ([4]; 0.1 mg/kg/min): 30/35
Adverse events in individual patient ([4]; 0.38 mg/kg/min, patient A5): no events other than S-T segment elevation on the ECG post-bypass
Frequency of adverse events vs placebo ([4]; drug-treated patients, 0.05 and 0.1 mg/kg/min): no evidence that any of these events occurred more frequently in drug-treated patients compared with placebo
Tolerability ([4]; first patients, 0.19 or 0.38 mg/kg/min): well tolerated
Serious adverse experiences ([4]; first six patients, 0.19 or 0.38 mg/kg/min): no serious adverse experiences
Serum/urinary uric acid and crystalluria ([4]; five drug-treated patients, 0.19 or 0.38 mg/kg/min): significant hyperuricemia and elevated urinary uric acid levels with crystalluria
Urine coloration ([4]; five patients at 0.19 or 0.38 mg/kg/min, patient A14 at 0.05 mg/kg/min): same green coloration; also recorded: clear, green coloration
Mean duration of postbypass ECG ischemic episodes [5, 7]: 36 ± 20 min and 36 min
Incidence of prebypass ECG ischemia ([5]; high dose (0.1 mg/kg/min)): 3%
Incidence of ECG ischemia (postbypass) ([5]; high dose (0.1 mg/kg/min)): 11%
Incidence of prebypass TEE ischemia ([5]; high dose (0.1 mg/kg/min)): 6%
Incidence of postbypass TEE ischemia ([5]; high dose (0.1 mg/kg/min)): 24%
Ischemic minutes per hour monitored, postbypass [5, 7]: 27 ± 20 min/h
Mean area under the S-T curve (AUC), postbypass ECG ischemia ([5]; high dose (0.1 mg/kg/min)): -52 ± 28 mm-min
Incidence of preoperative (baseline) ECG ischemia ([5]; high dose group (0.1 mg/kg/min)): 14%
Mean area under the S-T segment ([5]; high dose): 27±20
Mean duration of postbypass ECG ischemic episodes [5, 8]: 125 ± 80 min and 125 min
Incidence of prebypass ECG ischemia ([5]; low dose (0.05 mg/kg/min)): 3%
Incidence of ECG ischemia (postbypass) ([5]; low dose (0.05 mg/kg/min)): 22%
Incidence of prebypass TEE ischemia ([5]; low dose (0.05 mg/kg/min)): 15%
Incidence of postbypass TEE ischemia ([5]; low dose (0.05 mg/kg/min)): 27%
Ischemic minutes per hour monitored, postbypass [5, 8]: 40 ± 15 min/h
Mean area under the S-T curve (AUC), postbypass ECG ischemia ([5]; low dose (0.05 mg/kg/min)): -172 ± 144 mm-min
Incidence of preoperative (baseline) ECG ischemia ([5]; low dose group (0.05 mg/kg/min)): 14%
Mean area under the S-T segment ([5]; low dose): 40±15
Effect on postsurgical myocardial ischemia ([5]; patients undergoing CABG surgery): limits the extent of postsurgical myocardial ischemia
Stability of liquid formulation [6]: variable discoloration

— patent publication US5817640A (Gensia Pharmaceuticals, priority 1995, dated 1998)
